# Measured values taken from patent US11414387B2, “Oxoacridinyl acetic acid derivatives and methods of use” (Stingthera, Inc., priority 2017, dated 2022).
# Key:
# mSTING-R232 = mSTING-R232 (Mus musculus, UniProt Q3TBT3); test: STING differential scanning fluorimetry (DSF) assay, mouse STING; details: net shift in melting temperature
# Protocol: A STING DSF assay was performed to determine protein thermostability shift in response to small molecule ligand binding. A STING thermostability shift assay based on differential scanning fluorimetry was used to measure (1) the net shift in melting temperature (ΔTm)between the apo and ligand-bound states of the STING protein and (2) the concentration of the thermal denaturation transition (EC50) as a surrogate measure of binding affinity (K). […] Protein in assay buffer was transferred to a 384 well plate and incubated with the hydrophobic fluorescent dye SYBR Orange. A temperature ramp was applied to the plate and the resulting dye fluorescence was plotted as a function of temperature. The first derivative of this function (dF/dT) was then used to extrapolate the melting temperature of the protein at various concentrations of compound and determine the thermal denaturation profile of a protein/compound complex.
# • 1. Protein construct (affinity tag removal vs SUMO-fusion construct) • 2. Protein concentration • 3. Dye concentration • 4. Buffer • 5. Thermal ramp velocity • 6. DMSO tolerance • 7. Compound titration parameters • 8. […] 5 μM purified Target STING Protein • 3. 8 μM Sypro Orange Dye • 4. Buffer: 100 mM NaCl, 30 mM HEPES, pH 7.5 • 5. Thermal Ramp: 0.5° C./min • 6. <1% DMSO • 7. 11 point, 2 fold dilution, duplicate, 300 μM high concentrations • 8.
# mSTING = mSTING (Mus musculus, UniProt Q3TBT3); test: Radiometric filtration binding competition assay, mSTING
# STING protein = STING protein (Homo sapiens (Human), UniProt Q86WV6, H232R); test: Cell based reporter assay of IRF activation (IRF-luciferase), THP1-dual-KI R232; details: read-out: THP1-dual-KI R232_IRF(Luciferase)_Activity Maximum measured (%)
# Chain of STING protein (Q86WV6 whole entry H232R, the tested form may be a part): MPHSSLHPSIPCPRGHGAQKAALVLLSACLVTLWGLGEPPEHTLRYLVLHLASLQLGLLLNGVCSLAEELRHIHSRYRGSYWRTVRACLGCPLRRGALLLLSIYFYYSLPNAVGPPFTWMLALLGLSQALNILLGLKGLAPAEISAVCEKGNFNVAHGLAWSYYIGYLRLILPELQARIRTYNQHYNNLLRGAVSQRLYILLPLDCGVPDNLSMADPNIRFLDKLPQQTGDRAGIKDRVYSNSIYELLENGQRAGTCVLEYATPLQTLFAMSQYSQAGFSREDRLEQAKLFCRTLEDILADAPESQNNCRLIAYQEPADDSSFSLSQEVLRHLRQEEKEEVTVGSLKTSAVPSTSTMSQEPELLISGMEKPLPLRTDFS
# hSTING-R232 = hSTING-R232 (Homo sapiens (Human), UniProt Q86WV6, H232R); test: STING differential scanning fluorimetry (DSF) assay, WT human STING; details: WT (R232) human STING aa140-379, net shift in melting temperature
# Chain of hSTING-R232 (Q86WV6 140-379 H232R): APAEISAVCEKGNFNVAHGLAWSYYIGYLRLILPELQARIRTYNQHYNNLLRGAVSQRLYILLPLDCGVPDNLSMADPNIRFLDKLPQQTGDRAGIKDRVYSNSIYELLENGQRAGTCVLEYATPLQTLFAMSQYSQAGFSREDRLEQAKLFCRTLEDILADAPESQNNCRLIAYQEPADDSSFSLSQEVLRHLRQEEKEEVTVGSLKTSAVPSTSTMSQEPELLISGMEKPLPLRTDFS
# hSTING-WT = hSTING-WT (Homo sapiens (Human), UniProt Q86WV6, H232R); test: Radiometric filtration binding competition assay, hSTING-WT
# Chain of hSTING-WT (Q86WV6 140-379 H232R): as above
# Protocol: A radiometric filtration binding competition assay was performed to quantify the binding affinity of compounds of the present application for the human or mouse STING protein, or associated HAQ human isoform. […] The resulting dose response was fit by non-linear regression to determine an IC50 value, from which a Ki value for each compound was extrapolated.
# The resulting complexes were then filtered, dried, and scintillation fluid was added and the remaining radio signal was measured to determine the degree of compound ligand inhibition. This assay format was optimized for both the WT and HAQ isoforms of the human protein and the mouse orthologue protein.
# Probe Concentration: Minimum concentration that achieved max assay window • g. Assay Format: Scintillation Proximity Bead or Filtration Binding Plate • h. […] Assay incubation times for successive incubation steps
# WT-hSWAT: WT_FBA_HIS-SUMO-hSWAT IC50 (μM) (“WT”=Wild-type); HAQ-hSWAT: HAQ_FBA_HIS-SUMO-hSWAT IC50 (μM) (“HAQ”=human HAQ allele of STING protein); and WT-mSWAT: MOUSE_FBA_HIS-SUMO-mnSWAT IC50 (μM) which is the mouse isoform of STING protein.
Compound,MOUSE DSF_6xHIS-SUMO Tm Shift (° C.) (mSTING-R232),IC50 (mSTING) [µM],Emax (STING protein) [%],WT_DSF_hSWAT Tm Shift (° C.) (hSTING-R232),IC50 (hSTING-WT) [µM]
Cc1ccc2c(=O)c3ccc(Cl)c(OCC4CC4)c3n(CC(=O)O)c2c1 [Compound 325],C (“C” = 5-15° C.),100 to 300,25 to 50,"C (“C” = 2-7° C,)",100 to 300
CS(=O)(=O)Nc1cccc(Nc2ccc3c(=O)c4ccc(Cl)c(Cl)c4n(CC(=O)O)c3c2)c1 [Compound 257],D (“D” > 15° C.),< 20,< 5,D (“D” > 7° C.),20 to 100
COc1c(Cl)ccc2c(=O)c3ccc(SC(C)C)cc3n(CC(=O)O)c12 [Compound 232],D (“D” > 15° C.),< 20,> 50,D (“D” > 7° C.),100 to 300
CCc1ccc2c(=O)c3ccc(Cl)c(OC)c3n(CC(=O)O)c2c1 [Compound 294],C (“C” = 5-15° C.),20 to 100,> 50,D (“D” > 7° C.),20 to 100
Cc1ccc2c(=O)c3ccc(Cl)c(-c4ccccc4)c3n(CC(=O)O)c2c1 [Compound 326],D (“D” > 15° C.),< 20,> 50,D (“D” > 7° C.),< 20
O=C(O)Cn1c2ccccc2c(=O)c2ccc(Cl)c(OCCCO)c21 [Compound 329],C (“C” = 5-15° C.),> 300,< 5,B (“B” = 0-2° C.),> 300
CSc1c(Cl)ccc2c(=O)c3ccc(Br)cc3n(CC(=O)O)c12 [Compound 309],C (“C” = 5-15° C.),20 to 100,> 50,D (“D” > 7° C.),20 to 100
CCN(C)c1c(Cl)ccc2c(=O)c3ccc(C)cc3n(CC(=O)O)c12 [Compound 307],D (“D” > 15° C.),20 to 100,> 50,D (“D” > 7° C.),20 to 100
COc1c(Cl)ccc2c(=O)c3ccc(Nc4ccc(OC(F)(F)F)cc4)cc3n(CC(=O)O)c12 [Compound 266],D (“D” > 15° C.),< 20,> 50,D (“D” > 7° C.),< 20
O=C(O)Cn1c2cc(Nc3ccccc3)ccc2c(=O)c2ccc(Cl)c(Br)c21 [Compound 206],D (“D” > 15° C.),< 20,,D (“D” > 7° C.),20 to 100
CC(C)c1ccc2c(=O)c3ccc(Cl)c(-c4ccccc4)c3n(CC(=O)O)c2c1 [Compound 289],C (“C” = 5-15° C.),< 20,> 50,D (“D” > 7° C.),< 20
CCSc1ccc2c(=O)c3ccc(Cl)c(OC)c3n(CC(=O)O)c2c1 [Compound 231],D (“D” > 15° C.),< 20,> 50,D (“D” > 7° C.),20 to 100
CCOc1c(Cl)ccc2c(=O)c3ccc(CC)cc3n(CC(=O)O)c12 [Compound 306],D (“D” > 15° C.),< 20,> 50,D (“D” > 7° C.),< 20
CSc1c(Cl)ccc2c(=O)c3ccc(Nc4cnccn4)cc3n(CC(=O)O)c12 [Compound 291],D (“D” > 15° C.),< 20,< 5,D (“D” > 7° C.),< 20
CCOc1c(Cl)ccc2c(=O)c3ccc(C(C)C)cc3n(CC(=O)O)c12 [Compound 288],D (“D” > 15° C.),< 20,> 50,D (“D” > 7° C.),< 20
COc1c(Cl)ccc2c(=O)c3ccc(-c4ccc(O)cc4)cc3n(CC(=O)O)c12 [Compound 269],D (“D” > 15° C.),< 20,> 50,D (“D” > 7° C.),< 20
O=C(O)Cn1c2ccccc2c(=O)c2ccc(Br)c(Br)c21 [Compound 108],C (“C” = 5-15° C.),100 to 300,5 to 25,"C (“C” = 2-7° C,)",> 300
C[C@@H](O)COc1c(Cl)ccc2c(=O)c3ccccc3n(CC(=O)O)c12 [Compound 323],D (“D” > 15° C.),< 20,< 5,D (“D” > 7° C.),< 20

Compound,MOUSE DSF_6xHIS-SUMO Tm Shift (° C.) (mSTING-R232),IC50 (mSTING) [µM],Emax (STING protein) [%],WT_DSF_hSWAT Tm Shift (° C.) (hSTING-R232),IC50 (hSTING-WT) [µM]
COc1c(Cl)ccc2c(=O)c3ccc(Nc4ccccc4Cl)cc3n(CC(=O)O)c12 [Compound 267],D (“D” > 15° C.),< 20,> 50,D (“D” > 7° C.),< 20
C=CCOc1c(Cl)ccc2c(=O)c3ccc(C)cc3n(CC(=O)O)c12 [Compound 311],C (“C” = 5-15° C.),< 20,> 50,D (“D” > 7° C.),20 to 100
Cc1ccc2c(=O)c3ccc(Cl)c(N(C)C)c3n(CC(=O)O)c2c1 [Compound 308],D (“D” > 15° C.),< 20,> 50,D (“D” > 7° C.),< 20
CN(C)c1c(Cl)ccc2c(=O)c3ccc(C(C)(C)C)cc3n(CC(=O)O)c12 [Compound 324],D (“D” > 15° C.),< 20,> 50,D (“D” > 7° C.),< 20
COc1c(Cl)ccc2c(=O)c3ccc(SC)cc3n(CC(=O)O)c12 [Compound 234],D (“D” > 15° C.),< 20,> 50,D (“D” > 7° C.),20 to 100
COc1c(Cl)ccc2c(=O)c3ccc(-c4cccc(O)c4)cc3n(CC(=O)O)c12 [Compound 270],D (“D” > 15° C.),< 20,> 50,D (“D” > 7° C.),< 20
Cc1cc2c(cc1F)c(=O)c1ccc(Cl)c(Cl)c1n2CC(=O)O [Compound 135],B (“B” = 0-5° C.),,< 5,A (“A” < 0° C.),100 to 300
Cc1ccc(-c2ccc3c(=O)c4ccc(Cl)c(Cl)c4n(CC(=O)O)c3c2)cc1F [Compound 163],D (“D” > 15° C.),,5 to 25,"C (“C” = 2-7° C,)",20 to 100
COc1c(Cl)ccc2c(=O)c3ccccc3n(CC(=O)O)c12 [Compound 178],C (“C” = 5-15° C.),> 300,,"C (“C” = 2-7° C,)",> 300
O=C(O)Cn1c2cc(NCCN3CCc4ccccc43)ccc2c(=O)c2ccc(Cl)c(Cl)c21 [Compound 150],C (“C” = 5-15° C.),,5 to 25,"C (“C” = 2-7° C,)",100 to 300
O=C(O)Cn1c2cc(-c3cccc(Cl)c3)ccc2c(=O)c2ccc(Cl)c(Cl)c21 [Compound 155],D (“D” > 15° C.),,< 5,"C (“C” = 2-7° C,)",100 to 300
Cc1cccc2c(=O)c3cccc(C)c3n(CC(=O)O)c12 [Compound 132],A (“A” < 0° C.),,< 5,A (“A” < 0° C.),100 to 300
O=C(O)Cn1c2cc(-c3ccc(F)cc3)ccc2c(=O)c2ccc(Cl)c(Cl)c21 [Compound 153],D (“D” > 15° C.),,5 to 25,"C (“C” = 2-7° C,)",20 to 100
O=C(O)Cn1c2cc(N3CCc4ccccc43)ccc2c(=O)c2ccc(Cl)c(Cl)c21 [Compound 144],C (“C” = 5-15° C.),,< 5,"C (“C” = 2-7° C,)",100 to 300
CC1CCC(Nc2ccc3c(=O)c4ccc(Cl)c(Cl)c4n(CC(=O)O)c3c2)CC1 (centres unmarked) [Compound 140],D (“D” > 15° C.),,5 to 25,"C (“C” = 2-7° C,)",20 to 100
CC1(C)CCCC(Nc2ccc3c(=O)c4ccc(Cl)c(Cl)c4n(CC(=O)O)c3c2)C1 (centres unmarked) [Compound 139],D (“D” > 15° C.),,< 5,"C (“C” = 2-7° C,)",20 to 100
CC(C)c1ccc2c(=O)c3ccc(Cl)c(Cl)c3n(C)c2c1 [Compound 174],B (“B” = 0-5° C.),,< 5,B (“B” = 0-2° C.),> 300
O=C(O)Cn1c2cc(NC3CCC3)ccc2c(=O)c2ccc(Cl)c(Br)c21 [Compound 175],D (“D” > 15° C.),,> 50,D (“D” > 7° C.),20 to 100
